We go through 3 compounds from patent US20050191247A1, “Chlorhexidine compositions” (priority 2004, published 2005).

Read-outs that look alike come from different tables or passages of the source. Peptide text beside a SMILES is read from it.

One data set deals with Suspensions of S. mutans. Nature of the data set: Bactericidal activity in suspensions of S. mutans. It counts as cell-based, Streptococcus mutans. To be noted: within one hour of incubation; buffer control 10^6 cfu/ml.
The test system of data set [1] is Streptococcus mutans biofilms. Put plainly: Test A: bactericidal activity in bacterial biofilm system. Conditions: flavoring or sweetening agent added to chlorhexidine composition. The class given is cell-based. As to the method: Rinse formulations were assessed for their bactericidal activity in a laboratory bacterial biofilm system. Streptococcus mutans biofilms were grown on slides in Trypticase Soy Broth supplemented with 0.5% Yeast Extract (TSB-YE), 1.0% glucose and 2.0% sucrose, and incubated for 48 hr in 5% CO2 at 37° C. Biofilms were exposed to the different formulations for 30 seconds with slow stirring. Biofilms were then extensively washed, harvested, and resuspended in fresh media. Samples were spiral-plated on Mitis-Salivarius agar. Numbers of viable bacteria were determined following standard spiral plating methodology.
The first series of experiments explored the effect of combinations of chlorhexidine-Cu^++ and chlorhexidine-Zn^++ on biofilms of Streptococcus mutans. The chlorhexidine (CHX) used in the experiments depicted in FIG. 1 was made by diluting a chlorhexidine gluconate stock solution (Chlorhexidine gluconate 20% solution, B.P. supplied by Medisca, Inc., 661 Route #3, Unit C, Plattsburg, N.Y. 12901. Telephone 1-800-932-1039) with ultrapure water to form a 0.12% chlorhexidine digluconate solution. […]
Biofilms of S. mutans were made by immersing slides in Trypticase Soy Broth-Yeast Extract (TSB-YE) supplemented with 1.0% glucose and 2.0% sucrose. […] Numbers of viable cells were determined by standard Spiral-plating methodology. […]

For data set [2] the following is noted: cited from earlier work.
For a further data set, the system named is S. mutans. Put plainly: Test B: effect on ability of S. mutans to produce acid (culture pH over time). To be noted: chlorhexidine 0.06%, cupric acetate and zinc chloride 0.1% w/v; TSB-YE with 1.0% glucose. The class given is cell-based, Streptococcus mutans. As to the method: Some oral bacteria are believed to cause cavities by producing acid in the mouth. Therefore, the ability of a composition to prevent and treat cavities can be measured by determining its effects on bacterial acid production.
Accordingly, the effect of representative compositions on the ability of S. mutans to produce acid was also assessed. Biofilms were exposed to CHX-Cu^++ or CHX-Zn^++ as described, then washed, harvested, and resuspended in sterile TSB-YE supplemented with 1.0% glucose at standardized concentrations. Changes in culture pH were measured over time. Representative results of these studies are illustrated in FIG. 3.
The chlorhexidine (CHX) used in the experiments depicted in FIG. 3 was made by diluting a chlorhexidine gluconate stock solution (Chlorhexidine gluconate 20% solution, B.P. supplied by Medisca, Inc., 661 Route #3, Unit C, Plattsburg, N.Y. 12901. Telephone 1-800-932-1039) with ultrapure water to form a 0.12% chlorhexidine digluconate solution. This strength mimics the concentration of chlorhexidine gluconate found in commercial rinses (Peridex®—Zila Pharmaceuticals 5227 N. 7th Street, Phoenix, Ariz. 85014. Telephone (602) 266-6700) available in the United States.
Chlorhexidine was at a concentration of 0.06%, and cupric acetate and zinc chloride were at concentrations of 0.1% w/v. Exposure of chlorhexidine alone had little effect on acid production. […]

For data set [3] the following is noted: 0.12% rinse; Drug Facts and Comparisons, 1999; cited from earlier work.

With `N=C(NCCCCCCNC(=N)NC(=N)Nc1ccc(Cl)cc1)NC(=N)Nc1ccc(Cl)cc1.O=C(O)[C@H](O)[C@@H](O)[C@H](O)[C@H](O)CO.O=C(O)[C@H](O)[C@@H](O)[C@H](O)[C@H](O)CO` [Chlorhexidine gluconate (0.12% CHX)], the “viable count after exposure” value in the data set on Suspensions of S. mutans was determined as 0 cfu/ml.
As to `COC(=O)[C@H](Cc1ccccc1)NC(=O)[C@@H](N)CC(=O)O` [aspartame] (HELM PEPTIDE1{D.F.[CO[*:1]]}$$$$V2.0), the “effect of additive on the antibacterial activity of the chlorhexidine oral composition” value in data set [1] was “do not significantly decrease”. Besides, the solubility in water result in data set [2] (20° C.) is reported as “approximately 1%”; in data set [2] (50° C.), about 3%.
`[H]/N=C(\N/C(=N/[H])NCCCCCCNC(=N)NC(=N)Nc1ccc(Cl)cc1)Nc1ccc(Cl)cc1` [chlorhexidine]: in the data set with S. mutans, the “effect on acid production (pH curves)” value is listed as “little effect”. The “chlorhexidine retained in the oral cavity following rinsing” value in data set [3] is recorded as “Approximately 30%”.
